Laboratory results as given in patent US20070128217A1 (priority 2003, published 2007).

Experiments:
[1] = system: antibodies in sera from SARS patients (sera 1a, 1b, 2, 6, 37, 62, London, SARS-yellow, SARS-green); assay type: binding, human; parameters: Binding of serum 6 to linear peptides of protein X1 of SARS-CoV Urbani / Binding of serum 37 to linear peptides of protein X1 of SARS-CoV Urbani / Binding of serum 6 to looped/cyclic peptide (PEPSCAN-ELISA) / Binding of serum 37 to looped/cyclic peptide (PEPSCAN-ELISA) / Binding of serum 37 to looped/cyclic peptides of protein X1 of SARS-CoV Urbani / Binding of serum 6 to linear peptides of protein X2 / Binding of serum 37 to linear peptides of protein X2 / Binding of serum 37 to looped/cyclic peptides of protein X2 of SARS-CoV Urbani / Binding of serum 6 to linear peptides of protein M of SARS-CoV Urbani / Binding of serum 37 to linear peptides of protein M of SARS-CoV Urbani / Binding of serum 6 to looped/cyclic peptides of protein M of SARS-CoV Urbani / Binding of serum 37 to looped/cyclic peptides of protein M of SARS-CoV Urbani / Binding of serum 6 to linear peptides of protein X3 of SARS-CoV Urbani / Binding of serum 37 to linear peptides of protein X3 of SARS-CoV Urbani / Binding of serum 37 to looped/cyclic peptides of protein X3 of SARS-CoV Urbani / Binding of serum 6 to linear peptides of protein X4 of SARS-CoV Urbani / Binding of serum 37 to linear peptides of protein X4 of SARS-CoV Urbani / Binding of serum 37 to looped/cyclic peptides of protein X4 of SARS-CoV Urbani / Binding of serum 6 to linear peptides of protein X5 of SARS-CoV Urbani / Binding of serum 37 to linear peptides of protein X5 of SARS-CoV Urbani / Binding of serum 37 to looped/cyclic peptides of protein X5 of SARS-CoV Urbani / Binding of serum 6 to linear peptides of protein N of SARS-CoV Urbani / Binding of serum 37 to linear peptides of protein N of SARS-CoV Urbani / Binding of serum 6 to linear peptide (PEPSCAN-ELISA) / Binding of serum 1a to looped/cyclic peptides of protein N of SARS-CoV Urbani / Binding of serum 1b to looped/cyclic peptides of protein N of SARS-CoV Urbani / Binding of serum 2 to looped/cyclic peptides of protein N of SARS-CoV Urbani / Binding of serum 6 to looped/cyclic peptides of protein N of SARS-CoV Urbani / Binding of serum 37 to looped/cyclic peptides of protein N of SARS-CoV Urbani / Binding of serum 62 to looped/cyclic peptides of protein N of SARS-CoV Urbani / Binding of serum London to looped/cyclic peptides of protein N of SARS-CoV Urbani / Binding of serum SARS-green to looped/cyclic peptides of protein N of SARS-CoV Urbani: unit not given here
[2] = system: control sera (pooled serum of ten healthy LUMC hospital workers; commercial negative donor pooled serum from the Dutch bloodbank); assay type: binding, human; parameters: Binding of Control serum LUMC to linear peptides / Binding of Control serum Blood-bank to linear peptides / Binding of Control serum LUMC to looped peptides / Binding of Control Serum Blood-Bank to Looped peptides / Binding of Control serum LUMC to linear peptides of the protein M of SARS-CoV Urbani / Binding of Control serum Blood-bank to linear peptides of the protein M of SARS-CoV Urbani / Binding of Control serum LUMC to looped peptides of the protein M of SARS-CoV Urbani / Binding of Control Serum Blood-Bank to Looped peptides of the protein M of SARS-CoV Urbani: unit not given here
[3] = system: rabbit serum obtained by immunizing a rabbit with the SARS-CoV strain Frankfurt 1; assay type: binding; parameters: Binding of a rabbit serum to linear peptides / Binding of a rabbit serum to looped peptides / Rabbit serum linear peptides / Rabbit serum looped peptides / Binding of a rabbit serum to linear peptides of protein N of SARS-CoV Urbani (Rabbit serum linear peptides) / Binding of a rabbit serum to looped/cyclic peptides of protein N of SARS-CoV Urbani (Rabbit serum looped peptides): unit not given here

## YKGFQFICNLLLLFV
[1]
  Binding of serum 1a to linear peptides of protein X1 of SARS-CoV Urbani: 0.9
  Binding of serum 1a to looped/cyclic peptide (PEPSCAN-ELISA): 0.3
  Binding of serum 1b to linear peptides of protein X1 of SARS-CoV Urbani: 0.8
  Binding of serum 1b to looped/cyclic peptide (PEPSCAN-ELISA): 0.0
  Binding of serum 2 to linear peptides of protein X1 of SARS-CoV Urbani: 0.9
  Binding of serum 2 to looped/cyclic peptide (PEPSCAN-ELISA): 0.0
  Binding of serum 6 to linear peptides of protein X1 of SARS-CoV Urbani: 0.9
  Binding of serum 6 to looped/cyclic peptide (PEPSCAN-ELISA): 0.3
  Binding of serum 37 to linear peptides of protein X1 of SARS-CoV Urbani: 0.7
  Binding of serum 37 to looped/cyclic peptide (PEPSCAN-ELISA): 0.2
  Binding of serum 62 to linear peptides of protein X1 of SARS-CoV Urbani: 1.0
  Binding of serum 62 to looped/cyclic peptide (PEPSCAN-ELISA): 0.3
  Binding of serum London to linear peptides of protein X1 of SARS-CoV Urbani: 0.8
  Binding of serum London to looped/cyclic peptide (PEPSCAN-ELISA): 0.2
  Binding of serum SARS-green to linear peptides of protein X1 of SARS-CoV Urbani: 0.4
  Binding of serum SARS-green to looped/cyclic peptide (PEPSCAN-ELISA): 0.3
  Binding of serum SARS-yellow to linear peptides of protein X1 of SARS-CoV Urbani: 0.6
  Binding of serum SARS-yellow to looped/cyclic peptide (PEPSCAN-ELISA): 0.0
[2]
  Binding of Control Serum Blood-Bank to Looped peptides: 0.4
  Binding of Control serum Blood-bank to linear peptides: 1.0
  Binding of Control serum LUMC to linear peptides: 0.8
  Binding of Control serum LUMC to looped peptides: 0.4
[3]
  Binding of a rabbit serum to linear peptides: 0.3
  Binding of a rabbit serum to looped peptides: 0.0

## YLYALIYFLQCINAC
[1]
  Binding of serum 1a to linear peptides of protein X1 of SARS-CoV Urbani: 0.7
  Binding of serum 1a to looped/cyclic peptide (PEPSCAN-ELISA): 0.4
  Binding of serum 1b to linear peptides of protein X1 of SARS-CoV Urbani: 0.5
  Binding of serum 1b to looped/cyclic peptide (PEPSCAN-ELISA): 0.2
  Binding of serum 2 to linear peptides of protein X1 of SARS-CoV Urbani: 0.5
  Binding of serum 2 to looped/cyclic peptide (PEPSCAN-ELISA): 0.3
  Binding of serum 6 to linear peptides of protein X1 of SARS-CoV Urbani: 0.5
  Binding of serum 6 to looped/cyclic peptide (PEPSCAN-ELISA): 0.2
  Binding of serum 37 to linear peptides of protein X1 of SARS-CoV Urbani: 0.6
  Binding of serum 37 to looped/cyclic peptide (PEPSCAN-ELISA): 0.4
  Binding of serum 62 to linear peptides of protein X1 of SARS-CoV Urbani: 0.5
  Binding of serum 62 to looped/cyclic peptide (PEPSCAN-ELISA): 0.4
  Binding of serum London to linear peptides of protein X1 of SARS-CoV Urbani: 0.4
  Binding of serum London to looped/cyclic peptide (PEPSCAN-ELISA): 0.2
  Binding of serum SARS-green to linear peptides of protein X1 of SARS-CoV Urbani: 0.2
  Binding of serum SARS-green to looped/cyclic peptide (PEPSCAN-ELISA): 0.1
  Binding of serum SARS-yellow to linear peptides of protein X1 of SARS-CoV Urbani: 0.3
  Binding of serum SARS-yellow to looped/cyclic peptide (PEPSCAN-ELISA): 0.2
[2]
  Binding of Control Serum Blood-Bank to Looped peptides: 0.5
  Binding of Control serum Blood-bank to linear peptides: 0.5
  Binding of Control serum LUMC to linear peptides: 0.6
  Binding of Control serum LUMC to looped peptides: 0.5
[3]
  Binding of a rabbit serum to linear peptides: 0.1
  Binding of a rabbit serum to looped peptides: 0.4

## YMAISPKFTTSLSLH
[1]
  Binding of serum 1a to linear peptides of protein X2: 0.7
  Binding of serum 1a to looped/cyclic peptides of protein X2 of SARS-CoV Urbani: 0.6
  Binding of serum 1b to linear peptides of protein X2: 0.6
  Binding of serum 1b to looped/cyclic peptides of protein X2 of SARS-CoV Urbani: 0.6
  Binding of serum 2 to linear peptides of protein X2: 0.4
  Binding of serum 2 to looped/cyclic peptides of protein X2 of SARS-CoV Urbani: 0.4
  Binding of serum 6 to linear peptides of protein X2: 0.4
  Binding of serum 6 to looped/cyclic peptides of protein X2 of SARS-CoV Urbani: 0.5
  Binding of serum 37 to linear peptides of protein X2: 0.6
  Binding of serum 37 to looped/cyclic peptides of protein X2 of SARS-CoV Urbani: 0.5
  Binding of serum 62 to linear peptides of protein X2: 0.6
  Binding of serum 62 to looped/cyclic peptides of protein X2 of SARS-CoV Urbani: 0.6
  Binding of serum London to linear peptides of protein X2: 0.4
  Binding of serum London to looped/cyclic peptides of protein X2 of SARS-CoV Urbani: 0.4
  Binding of serum SARS-green to linear peptides of protein X2: 0.5
  Binding of serum SARS-green to looped/cyclic peptides of protein X2 of SARS-CoV Urbani: 0.4
  Binding of serum SARS-yellow to linear peptides of protein X2: 0.6
  Binding of serum SARS-yellow to looped/cyclic peptides of protein X2 of SARS-CoV Urbani: 0.4
[2]
  Binding of Control Serum Blood-Bank to Looped peptides: 0.7
  Binding of Control serum Blood-bank to linear peptides: 0.7
  Binding of Control serum LUMC to linear peptides: 0.4
  Binding of Control serum LUMC to looped peptides: 0.7
[3]
  Binding of a rabbit serum to linear peptides: 0.3
  Binding of a rabbit serum to looped peptides: 0.5

## YNRYRIGNYKLNTDH
[1]
  Binding of serum 1a to linear peptides of protein M of SARS-CoV Urbani: 0.7
  Binding of serum 1a to looped/cyclic peptides of protein M of SARS-CoV Urbani: 0.8
  Binding of serum 1b to linear peptides of protein M of SARS-CoV Urbani: 0.6
  Binding of serum 1b to looped/cyclic peptides of protein M of SARS-CoV Urbani: 0.7
  Binding of serum 2 to linear peptides of protein M of SARS-CoV Urbani: 0.4
  Binding of serum 2 to looped/cyclic peptides of protein M of SARS-CoV Urbani: 0.7
  Binding of serum 6 to linear peptides of protein M of SARS-CoV Urbani: 0.5
  Binding of serum 6 to looped/cyclic peptides of protein M of SARS-CoV Urbani: 1.1
  Binding of serum 37 to linear peptides of protein M of SARS-CoV Urbani: 0.5
  Binding of serum 37 to looped/cyclic peptides of protein M of SARS-CoV Urbani: 0.5
  Binding of serum 62 to linear peptides of protein M of SARS-CoV Urbani: 0.4
  Binding of serum 62 to looped/cyclic peptides of protein M of SARS-CoV Urbani: 0.6
  Binding of serum London to linear peptides of protein M of SARS-CoV Urbani: 0.5
  Binding of serum London to looped/cyclic peptides of protein M of SARS-CoV Urbani: 0.6
  Binding of serum SARS-green to linear peptides of protein M of SARS-CoV Urbani: 0.4
  Binding of serum SARS-green to looped/cyclic peptides of protein M of SARS-CoV Urbani: 0.3
  Binding of serum SARS-yellow to linear peptides of protein M of SARS-CoV Urbani: 0.1
  Binding of serum SARS-yellow to looped/cyclic peptides of protein M of SARS-CoV Urbani: 0.7
[2]
  Binding of Control Serum Blood-Bank to Looped peptides of the protein M of SARS-CoV Urbani: 0.8
  Binding of Control serum Blood-bank to linear peptides of the protein M of SARS-CoV Urbani: 0.5
  Binding of Control serum LUMC to linear peptides of the protein M of SARS-CoV Urbani: 0.6
  Binding of Control serum LUMC to looped peptides of the protein M of SARS-CoV Urbani: 0.9
[3]
  Rabbit serum linear peptides: 0.3
  Rabbit serum looped peptides: 0.5
